Data as given in US10696971B2, “MrgprX2/MrgprB2 expressing cell based assay to detect pseudo-allergic drug reactions and to identify blockers to prevent the adverse reactions” (The Johns Hopkins University, priority 2014, dated 2020).
“Also recorded” adds a separate entry of the source.

What was measured:
MrgprB2 = target: T1, MrgprB2 (Mus musculus, UniProt Q3KNA1); test: Calcium imaging / EC50 determination in HEK293 cells expressing MrgprB2 (MrgprB2-HEK); type: cell-based; conditions: HEK293 cells heterologously expressing MrgprB2
T1 construct: expressed in transfected cells
T1 sequence (Q3KNA1 1-338): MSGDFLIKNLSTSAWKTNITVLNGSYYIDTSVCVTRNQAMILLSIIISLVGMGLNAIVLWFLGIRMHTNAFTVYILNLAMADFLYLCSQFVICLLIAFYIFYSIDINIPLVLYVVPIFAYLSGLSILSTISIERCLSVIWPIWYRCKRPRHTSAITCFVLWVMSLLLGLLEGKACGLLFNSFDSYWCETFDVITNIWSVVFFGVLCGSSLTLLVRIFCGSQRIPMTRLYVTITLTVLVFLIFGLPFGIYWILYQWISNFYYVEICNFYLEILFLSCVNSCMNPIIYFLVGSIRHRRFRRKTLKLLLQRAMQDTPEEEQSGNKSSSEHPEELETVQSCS
Protocol: In initial screens, HEK293 cells (not tested for Mycoplasma but rapidly dividing) were transiently transfected with gene constructs including a C-terminal FLAG tag, and plated on 100 μg/ml poly-D-lysine coated glass cover slips six hours after transfection. […] Later experiments utilized cell lines stably expressing receptors along with transient or stable expression of the promiscuous G protein Gα15. […] Unless otherwise specified, drugs were perfused into the chamber for 45 to 60 seconds and responses were monitored at 5-second intervals for an additional 60-90 seconds.
HEK293 cells stably expressing Galpha15 and either MrgprB2 or MrgprX2 were plated at 4×10^4 cells per well in 96-well plates and incubated overnight. […] Cells were incubated at 37° C. for 60 minutes, and allowed to recover for 15 minutes at room temperature before imaging in a Flexstation 3 (Molecular Devices). Wells were imaged according to manufacturer's specifications for 120 seconds, with 50 μl of test substances at 3× concentration added 30 seconds after imaging began. Responses were determined by subtracting the minimum signal from the maximum signal. Substances were tested in duplicate wells, the signals were averaged, and EC50s were determined for each trial by normalizing to the peak response to the substance in that trial.

[1] = test system: mouse peritoneal mast cells; test: Peritoneal mast cell Fluo-4 calcium imaging, WT vs MrgprB2^MUT; type: cell-based; conditions: for activation / responsiveness of peritoneal mast cells, WT vs MrgprB2^MUT: Fluo-4 imaging, concentrations per FIG. 2A, 2E, 3A, 4C, 4E, 11 legends
Protocol: Adult male and female mice 2-5 months of age were sacrificed through CO2 inhalation. A total of 12 mls of ice cold mast cell dissociation media (MCDM; HBSS with 3% fetal bovine serum and 10 mM HEPES, pH 7.2) were used to make two sequential peritoneal lavages, which were combined and cells were spun down at 200 g. The pellet from each mouse was resuspended in 2 mls MCDM, layered over 4 mls of an isotonic 70% Percoll suspension (2.8 mls Percoll, 320 μls 10×HBSS, 40 μl 1 M HEPES, 830 μl MCDM), and spun down for 20 minutes, 500 g, 4° C. Mast cells were recovered in the pellet. Purity was >95%, as assayed by avidin staining and by morphology. Mast cells were resuspended at 5×10^5-1×10^6 cells/ml in DMEM with 10% fetal bovine serum and 25 ng/ml recombinant mouse stem cell factor (Sigma), and plated onto glass cover slips coated with 30 μg/ml fibronectin (Sigma). For counting, instead of plating, suspended mast cells were diluted 1/10 and affixed to slides by spinning at 1000 rpm for 5 minutes at 4° C. on a CytoSpin (Thermo Scientific).
For imaging, after two hours of incubation at 37° C., 5% CO2, mast cells were loaded with Fluo-4 along with 0.02% Pluronic F-127 for 30 minutes at room temperature, washed 3 times in CIB and used immediately for imaging. Cells were used within two hours of loading. Cells were identified as responding if the [Ca^2+]i rose by at least 50% for at least 10 seconds, which clearly distinguishes a ligand-induced response from random flickering events. Average traces were calculated by taking the average response from each cell in a mouse, and averaging those.

LAD2 human mast cells = test: LAD2 degranulation assay (β-hexosaminidase release), with MrgprX2 siRNA knockdown; type: cell-based; conditions: for β-hexosaminidase release in MrgprX2 siRNA vs control siRNA cells: compound 48/80 0.1, mastoparan 5, icatibant 10, atracurium 25, ciprofloxacin 75 μg/ml
Protocol: LAD2 cells were sensitized for 20 hours with 0.5 μg/ml biotin-conjugated human IgE (Abbiotec). Cells were washed, resuspended in Hepes buffer (10 mM HEPES, 137 mM NaCl, 2.7 mM KCl, 0.38 mM Na2HPO4.7H2O, 5.6 mM glucose, 1.8 mM CaCl2.H2O, 1.3 mM MgSO4.7H2O, 0.4% BSA, pH 7.4) at 0.025×10^6 per well, and then stimulated with 0.1 μg/ml streptavidin (Life Technologies) or other agonists at the indicated concentrations for 30 minutes at 37° C./5% CO2. The β-hexosaminidase released into the supernatants and in cell lysates was quantified by hydrolysis of p-nitrophenyl N-acetyl-β-D-glucosamide (Sigma-Aldrich) in 0.1 M sodium citrate buffer (pH 4.5) for 90 minutes at 37° C. The percentage of β-hexosaminidase release was calculated as a percent of total content.
LAD2 cells were washed with medium, suspended at 0.5×10^6 cells per well, and transfected with 100 nm MrgprX2 siRNA and control siRNA in antibiotic-free StemPro medium using Lipofectamine 3000 (Life Technologies) according to the manufacturer's instruction at 37° C./5% CO2. At 48 hours, knockdown was confirmed by reverse-transcriptase PCR, and the cells were used for degranulation assays.

peritoneal mast cells = test: Mouse peritoneal mast cell histamine release assay; type: cell-based; conditions: WT vs MrgprB2^MUT peritoneal mast cells
Protocol: Mast cells were purified as with the calcium imaging assay and allowed to recover for 2 hours in DMEM with 10% FBS and 25 ng/ml mouse stem cell factor in a 37° C. incubator with 5% CO2. Cells were then spun down, resuspended in CIB, counted, and plated at 300 cells/well in 75 μl CIB in 96-well plates coated with 20 μg/ml fibronectin (Sigma). They were allowed to adhere to the substrate for 45 minutes at 37° C. in atmospheric conditions (i.e. CO2 levels were not adjusted) before assay. […] After 5 minutes, 40 μl of supernatant was aspirated, diluted with 40 μl CIB and frozen at −80° C. until histamine levels were determined. Anti-IgE treatment was similar, except that cells were incubated for 30 minutes at 37° C. after anti-IgE was added before aspiration of supernatant. Histamine content was determined by using an HTRF histamine assay kit (Cisbio Assays) according to the manufacturer's instructions.

[2] = Drug preparation and storage observations; type: physicochemical
Protocol: Propranolol also was prepared fresh on the day of the experiment to minimize the chances of a loss in potency. All fluoroquinolones except levofloxacin were dissolved into CIB adjusted to pH 3.5. All other drugs were prepared as 100×-1000× aliquots and stored at −80° C. before thawing at 4° C. and diluting into calcium imaging buffer or saline.

WT and MrgprB2^MUT mice = test: Hindpaw swelling and Evans Blue extravasation; type: in vivo, mouse
Protocol: Adult male mice up to 8 months of age were anesthetized with an i.p. injection of 50 mg/kg pentobarbital (Sigma). 15 minutes after induction of anesthesia, mice were injected i.v. with 50 μl of 12.5 mg/ml Evans Blue (Sigma) in saline. 5 minutes later, 5 μl of the test substance (or 7 μl of anti-IgE) was administered by intraplantar injection in one paw and saline was administered in the other paw. Paw thickness was measured by calipers immediately after injection. 15 minutes later (30 minutes after anti-IgE), paw thickness was measured again and mice were sacrificed by decapitation. Paw tissue was collected, dried for 24 hours at 50° C., and weighed. Evans Blue was extracted by a 24 hour incubation in formamide at 50° C., and the O.D. was read at 620 nm using a spectrophotometer. For studies using ketotifen, mice were injected i.p. with 25 μl of a 10 mg/ml solution of ketotifen at the same time as pentobarbital.

Compound: CC(C)C[C@H](NC(=O)[C@H](C)NC(=O)[C@H](Cc1c[nH]c2ccccc12)NC(=O)[C@H](CCCCN)NC(=O)[C@H](CC(N)=O)NC(=O)[C@H](Cc1c[nH]c2ccccc12)NC(=O)[C@H](CCCCN)NC(=O)[C@H](CCCCN)NC(=O)[C@H](CCCNC(=N)N)NC(=O)[C@@H](N)Cc1ccccc1)C(=O)N[C@@H](CO)C(=O)N[C@@H](CCCNC(=N)N)C(N)=O [PAMP (9-20)]
- response of MrgprB2-HEK cells ([Ca2+]i) (MrgprB2): responded
- activation / responsiveness of peritoneal mast cells, WT vs MrgprB2^MUT [1]: strongly activated WT but not MrgprB2^MUT mast cells

Compound: CSCC[C@H](NC(=O)[C@H](CC(C)C)NC(=O)CNC(=O)[C@H](Cc1ccccc1)NC(=O)[C@H](Cc1ccccc1)NC(=O)[C@H](CCC(N)=O)NC(=O)[C@H](CCC(N)=O)NC(=O)[C@@H]1CCCN1C(=O)[C@H](CCCCN)NC(=O)[C@@H]1CCCN1C(=O)[C@@H](N)CCCNC(=N)N)C(N)=O [Substance P]
- response of MrgprB2-HEK cells ([Ca2+]i) (MrgprB2): responded

Compound: COc1ccc(CC2c3cc(OC)c(OC)cc3CC[N+]2(C)CCC(=O)OCCCCCOC(=O)CC[N+]2(C)CCc3cc(OC)c(OC)cc3C2Cc2ccc(OC)c(OC)c2)cc1OC (stereo not shown) [atracurium]
- β-hexosaminidase release in MrgprX2 siRNA vs control siRNA cells (LAD2 human mast cells): significantly reduced
- histamine release from WT peritoneal mast cells (MrgprB2^MUT released substantially less) (peritoneal mast cells): induced histamine release
- stability of potency of solutions [2]: susceptible to oxidation and/or freeze-thaw effects

Compound: CCN(CC)CCCC(C)Nc1ccnc2cc(Cl)ccc12 (stereo not shown) [chloroquine]
- response of MrgprB2-HEK cells ([Ca2+]i) (MrgprB2): no response

Compound: CC[C@H](C)[C@H](NC(=O)[C@H](CC(=O)O)NC(=O)[C@H](CC(C)C)NC(=O)[C@H](Cc1c[nH]cn1)NC(=O)[C@@H]1CSSC[C@H](N)C(=O)N[C@@H](CO)C(=O)N[C@H]2CSSC[C@H](NC(=O)[C@H](CCC(=O)O)NC(=O)[C@H](CCCCN)NC(=O)[C@H](CC(=O)O)NC(=O)[C@H](CCSC)NC(=O)[C@H](CC(C)C)NC(=O)[C@H](CO)NC(=O)[C@H](CO)NC2=O)C(=O)N[C@@H](C(C)C)C(=O)N[C@@H](Cc2ccc(O)cc2)C(=O)N[C@@H](Cc2ccccc2)C(=O)N1)C(=O)N[C@H](C(=O)N[C@@H](Cc1c[nH]c2ccccc12)C(=O)O)[C@@H](C)CC [endothelin]
- activation / responsiveness of peritoneal mast cells, WT vs MrgprB2^MUT [1]: comparable
- activation / responsiveness of peritoneal mast cells, WT vs MrgprB2^MUT ([1]; listed as Endothelin): not significantly different

Compound: NC(N)=NCCC[C@@H](N)C(=O)N[C@@H](CCCN=C(N)N)C(=O)N1CCC[C@H]1C(=O)N1C[C@H](O)C[C@H]1C(=O)NCC(=O)N[C@@H](Cc1cccs1)C(=O)N[C@@H](CO)C(=O)N1Cc2ccccc2C[C@@H]1C(=O)N1[C@H](C(=O)N[C@@H](CCCN=C(N)N)C(=O)O)C[C@@H]2CCCC[C@@H]21 [icatibant]
- β-hexosaminidase release in MrgprX2 siRNA vs control siRNA cells (LAD2 human mast cells): significantly reduced
- histamine release from WT peritoneal mast cells (MrgprB2^MUT released substantially less) (peritoneal mast cells): induced histamine release
- hindpaw extravasation and swelling in WT mice but not in MrgprB2^MUT mice (WT and MrgprB2^MUT mice; icatibant at the clinical concentration, intraplantar 10 mg/ml, 5 μl, 15 minutes): induced extensive extravasation and swelling
- increase in paw thickness, without ketotifen (WT and MrgprB2^MUT mice; icatibant intraplantar, no ketotifen pretreatment, n=4): 40.7±2.1%

Compound: CN1CCC(=C2c3ccccc3CC(=O)c3sccc32)CC1 [ketotifen]
- increase in paw thickness, with ketotifen (WT and MrgprB2^MUT mice; icatibant intraplantar after ketotifen i.p. pretreatment (25 μl of 10 mg/ml), n=4): 3.1±0.6%

Compound: CC[C@H](C)[C@H](N)C(=O)N[C@@H](CC(N)=O)C(=O)N[C@@H](CC(C)C)C(=O)N[C@@H](CCCCN)C(=O)N[C@@H](C)C(=O)N[C@@H](CC(C)C)C(=O)N[C@@H](C)C(=O)N[C@@H](C)C(=O)N[C@@H](CC(C)C)C(=O)N[C@@H](C)C(=O)N[C@@H](CCCCN)C(=O)N[C@@H](CCCCN)C(=O)N[C@H](C(=O)N[C@@H](CC(C)C)C(N)=O)[C@@H](C)CC [mastoparan]
- β-hexosaminidase release in MrgprX2 siRNA vs control siRNA cells (LAD2 human mast cells): significantly reduced
- histamine release from WT peritoneal mast cells (MrgprB2^MUT released substantially less) (peritoneal mast cells): induced histamine release

Compound: COc1cc2c(cc1OC)[C@@H](Cc1cc(OC)c(OC)c(OC)c1)[N+](C)(CCCOC(=O)CC/C=C/CCC(=O)OCCC[N+]1(C)CCc3cc(OC)c(OC)cc3[C@H]1Cc1cc(OC)c(OC)c(OC)c1)CC2 (stereo partly shown) [mivacurium]
- stability of potency of solutions [2]: susceptible to oxidation and/or freeze-thaw effects

Compound: COc1cc2c3cc1Oc1cc(ccc1O)C[C@@H]1c4c(cc(OC)c(O)c4Oc4ccc(cc4)C[C@@H]3N(C)CC2)CC[N+]1(C)C [tubocurarine]
- stability of potency of solutions [2]: susceptible to oxidation and/or freeze-thaw effects

Compound: BAMS-22: MrgprX1 and MrgprC11 agonist Bovine Adrenal Medulla derived peptide, fragment 8-22 (VGRPEWWMDYQKRYG)
- percentages of peritoneal mast cells responding, differences ([1]; 500 nM, Fluo-4, p=0.39): not significant

Compound: cortistatin
- activation / responsiveness of peritoneal mast cells, WT vs MrgprB2^MUT [1]: strongly activated WT but not MrgprB2^MUT mast cells

Compound: insulin: Recombinant human insulin from Roche, negative control
- activation / responsiveness of peritoneal mast cells, WT vs MrgprB2^MUT [1]: had no effect; also recorded: not significant

Compound: streptavidin: stimulus for biotin-conjugated human IgE sensitized LAD2 cells
- β-hexosaminidase release (LAD2 human mast cells; 0.1 μg/ml streptavidin, biotin-conjugated human IgE sensitized LAD2 cells): 71.3±1.8 % release
